Data: patent US20240000767A1, “COMBINATION OF AN ALPHA2-ADRENOCEPTOR SUBTYPE C (ALPHA-2C) ANTAGONIST WITH A TASK1/3 CHANNEL BLOCKER FOR THE TREATMENT OF SLEEP APNEA” (Bayer Aktiengesellschaft, priority 2020, published 2024)

Biological target: human ADRA2C receptor (Homo sapiens (Human), UniProt P18825)
Assay: In vitro activity assay to determine the inhibition of recombinant ADRA2C (CHO-K1 cells, aequorin bioluminescence)
Type: cell-based
Conditions: inhibition of noradrenaline-induced bioluminescence signal; some mean values from multiple determinations; read-out: ARα2C IC50
Method: B-2. In Vitro Activity Assay to Determine the Inhibition of Recombinant ADRA2C
The human ADRA2C receptor belongs to the G protein(guanine-dependent protein)-coupled receptors, the main function of which is the transduction of signals into the interior of the cell.
The investigations of the inhibition of the recombinant human ADRA2C receptors were carried out with stabily transfected CHO-K1 cells coexpressing the Gaq protein and the calcium-sensitive photoprotein aequorin. In this recombinant system, binding of the agonists noradrenaline to the ADRA2C receptor leads, after activation of a signal cascade, to calcium release from intracellular stores, which is detected by the intracellular calcium sensor aequorin as a bioluminescent signal. The method is described in detail in the reference below. [Wunder F., Kalthof B., Muller T., Hueser J. Functional Cell-Based Assays in Microliter Volumes for Ultra-High Throughput Screening. Combinatorial Chemistry & High Throughput Screening, Volume 11, Number 7, 2008, pp. 495-504(10). doi.org/10.2174/138620708785204054]
The activity of the test substances was determined via their ability to inhibit the agonist-induced increase of the bioluminescence signal. The concentration which can block half of this signal increase is referred to as IC50. The IC50 value is calculated using the 4 parameter logistic function (Hill function):
Top=upper threshold, Bottom=lower threshold, Slope=slope, IC50=turning point

Sequence of human ADRA2C receptor (P18825 whole entry): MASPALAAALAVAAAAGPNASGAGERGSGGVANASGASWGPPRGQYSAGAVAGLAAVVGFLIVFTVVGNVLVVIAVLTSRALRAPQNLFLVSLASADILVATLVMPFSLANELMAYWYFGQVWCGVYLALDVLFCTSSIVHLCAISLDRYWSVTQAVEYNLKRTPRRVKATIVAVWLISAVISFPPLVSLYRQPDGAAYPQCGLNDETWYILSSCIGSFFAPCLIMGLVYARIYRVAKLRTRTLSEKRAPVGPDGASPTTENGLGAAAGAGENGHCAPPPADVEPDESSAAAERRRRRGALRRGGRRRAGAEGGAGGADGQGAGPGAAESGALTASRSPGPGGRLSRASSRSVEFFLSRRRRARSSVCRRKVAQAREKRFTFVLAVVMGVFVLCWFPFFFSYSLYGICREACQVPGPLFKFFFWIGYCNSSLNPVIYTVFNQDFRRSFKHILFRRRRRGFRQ

| Structure (SMILES) | IC50 [nM] |
| --- | --- |
| O=C(NCc1ncc(F)cc1F)c1cnc(N2CCC(N3CCCC(COCC4CC(F)(F)C4)C3)CC2)s1 (racemic) [Example 75, rac-2-(3-{[(3,3-Difluorocyclobutyl)methoxy]methyl}[1,4′-bipiperidin]-1′-yl)-N-[(3,5-difluoropyridin-2-yl)methyl]-1,3-thiazole-5-carboxamide] | 345 |
| CCCC1CCCN(C2CCN(c3ncc(C(=O)NCc4ncc(F)cc4F)s3)CC2)C1 (racemic) [Example 121, rac-N-[(3,5-Difluoropyridin-2-yl)methyl]-2-(3-propyl[1,4′-bipiperidin]-1′-yl)-1,3-thiazole-5-carboxamide] | 0.65 |
| O=C(NCc1ncc(F)cc1F)c1cnc(N2CCC(N3CCCC(c4ccccc4)C3)CC2)s1 (racemic) [Example 133, rac-N-[(3,5-Difluoropyridin-2-yl)methyl]-2-(3-phenyl[1,4′-bipiperidin]-1′-yl)-1,3-thiazole-5-carboxamide] | 0.95 |
| CC(NC(=O)c1cnc(N2CCC(N3CCC[C@@H](C)C3)CC2)s1)c1cc(F)ccc1F (single isomer, unassigned) [Example 46] | 8.3 |
| CC(NC(=O)c1cnc(N2CCC(N3CCC[C@@H](C)C3)CC2)s1)c1cc(F)ccc1F (single isomer, unassigned) [Example 47] | 25 |
| C[C@@H]1CCCN(C2CCN(c3ncc(C(=O)NCc4ncc(F)cc4F)s3)CC2F)C1 (single isomer, unassigned) [Example 51] | 150 |
| C[C@@H]1CCCN(C2CCN(c3ncc(C(=O)NCc4ncc(F)cc4F)s3)CC2F)C1 (single isomer, unassigned) [Example 52] | 6.7 |
| O=C(NCc1ncc(F)cc1F)c1cnc(N2CCC(N3CCCC(COCC(F)(F)F)C3)CC2)s1 (single isomer, unassigned) [Example 106, ent-N-[(3,5-Difluoropyridin-2-yl)methyl]-2-{3-[(2,2,2-trifluoroethoxy)methyl][1,4′-bipiperidin]-1′-yl}-1,3-thiazole-5-carboxamide] | 0.5 |
| O=C(NCc1ncc(F)cc1F)c1cnc(N2CCC(N3CCCC(COCC(F)(F)F)C3)CC2)s1 (single isomer, unassigned) [Example 107, ent-N-[(3,5-Difluoropyridin-2-yl)methyl]-2-{3-[(2,2,2-trifluoroethoxy)methyl][1,4′-bipiperidin]-1′-yl}-1,3-thiazole-5-carboxamide] | 37 |
| O=C(NCc1ncc(F)cc1F)c1cnc(N2CCC(N3CCCC4(C3)CC4(F)F)CC2)s1 (single isomer, unassigned; ent-2) [Example 131, ent-2-[4-(1,1-Difluoro-5-azaspiro[2.5]octan-5-yl)piperidin-1-yl]-N-[(3,5-difluoropyridin-2-yl)methyl]-1,3-thiazole-5-carboxamide] | 1.9 |
| O=C(NCc1ncc(F)cc1F)c1cnc(N2CCC(N3CCCC4(C3)CC4(F)F)CC2)s1 (single isomer, unassigned; ent-2) [Example 132, ent-2-[4-(1,1-Difluoro-5-azaspiro[2.5]octan-5-yl)piperidin-1-yl]-N-[(3,5-difluoropyridin-2-yl)methyl]-1,3-thiazole-5-carboxamide (enantiomer 2)] | 0.71 |
| O=C(NCc1ncc(F)cc1F)c1cnc(N2CCC(N3CCc4ccccc4C3)CC2)s1 [Example 2, N-[(3,5-Difluoropyridin-2-yl)methyl]-2-[4-(3,4-dihydroisoquinolin-2(1H)-yl)piperidin-1-yl]-1,3-thiazole-5-carboxamide] | 5.2 |
| Cc1nc(N2CCC(N3CCC[C@@H](C)C3)CC2)sc1C(=O)NCc1ncc(F)cc1F [Example 8, N-[(3,5-difluoropyridin-2-yl)methyl]-4-methyl-2-[(3R)-3-methyl[1,4′-bipiperidin]-1′-yl]-1,3-thiazole-5-carboxamide] | 591 |
| Cc1sc(N2CCC(N3CCC[C@@H](C)C3)CC2)nc1C(=O)NCc1ncc(F)cc1F [Example 9, N-[(3,5-difluoropyridin-2-yl)methyl]-5-methyl-2-[(3R)-3-methyl[1,4′-bipiperidin]-1′-yl]-1,3-thiazole-4-carboxamide] | 170 |
| C[C@@H]1CCCN(C2CCN(c3nc(C(=O)NCc4ncc(F)cc4F)cs3)CC2)C1 [Example 10, N-[(3,5-difluoropyridin-2-yl)methyl]-2-[(3R)-3-methyl[1,4′-bipiperidin]-1′-yl]-1,3-thiazole-4-carboxamide] | 21.4 |

The remaining lines, values ahead:

| IC50 [nM] | Structure (SMILES) |
| --- | --- |
| 5.5 | O=C(NCc1ncc(F)cc1F)c1cnc(N2CCC(N3CCCC(COCC4CC4)C3)CC2)s1 (racemic) [Example 69, rac-2-{3-[(Cyclopropylmethoxy)methyl][1,4′-bipiperidin]-1′-yl}-N-[(3,5-difluoropyridin-2-yl)methyl]-1,3-thiazole-5-carboxamide] |
| 22 | CCOC1CCCN(C2CCN(c3ncc(C(=O)NCc4ncc(F)cc4F)s3)CC2)C1 (racemic) [Example 70, rac-N-[(3,5-Difluoropyridin-2-yl)methyl]-2-[3-ethoxy[1,4′-bipiperidin]-1′-yl]-1,3-thiazole-5-carboxamide] |
| 640 | O=C(NCc1ncc(F)cc1F)c1cnc(N2CCC(N3CCCC(OCC(F)(F)F)C3)CC2)s1 (racemic) [Example 77, rac-N-[(3,5-Difluoropyridin-2-yl)methyl]-2-[3-(2,2,2-trifluoroethoxy)[1,4′-bipiperidin]-1′-yl]-1,3-thiazole-5-carboxamide] |
| 0.83 | CC(C)C1CCCN(C2CCN(c3ncc(C(=O)NCc4ncc(F)cc4F)s3)CC2)C1 (racemic) [Example 103, rac-N-[(3,5-Difluoropyridin-2-yl)methyl]-2-(3-isopropyl[1,4′-bipiperidin]-1′-yl)-1,3-thiazole-5-carboxamide] |
| 0.85 | O=C(NCc1ncc(F)cc1F)c1cnc(N2CCC(N3CCCC(OC4CCC4)C3)CC2)s1 (racemic) [Example 109, rac-2-[3-(Cyclobutyloxy)[1,4′-bipiperidin]-1′-yl]-N-[(3,5-difluoropyridin-2-yl)methyl]-1,3-thiazole-5-carboxamide] |
| 1.5 | O=C(NCc1ncc(F)cc1F)c1cnc(N2CCC(N3CCCC(OC4CC(F)(F)C4)C3)CC2)s1 (racemic) [Example 110, rac-2-{3-[(3,3-Difluorocyclobutyl)oxy][1,4′-bipiperidin]-1′-yl}-N-[(3,5-difluoropyridin-2-yl)methyl]-1,3-thiazole-5-carboxamide] |
| 8.4 | O=C(NCc1ncc(F)cc1F)c1cnc(N2CCC(N3CCCC(CCF)C3)CC2)s1 (racemic) [Example 127, rac-Formic acid N-[(3,5-difluoropyridin-2-yl)methyl]-2-[3-(2-fluoroethyl)[1,4′-bipiperidin]-1′-yl]-1,3-thiazole-5-carboxamide] |
| 590 | COCC1CCCN(C2CCN(c3ncc(C(=O)NCc4ncc(F)cc4F)s3)CC2)C1 (single isomer, unassigned) [Example 99, ent-N-[(3,5-Difluoropyridin-2-yl)methyl]-2-[3-(methoxymethyl) [1,4′-bipiperidin]-1′-yl]-1,3-thiazole-5-carboxamide] |
| 10 | CC1CCCN(C2CCN(c3ncc(C(=O)NCc4ncc(F)cc4F)s3)CC2)CC1 (single isomer, unassigned) [Example 104, ent-N-[(3,5-Difluoropyridin-2-yl)methyl]-2-[4-(4-methylazepan-1-yl)piperidin-1-yl]-1,3-thiazole-5-carboxamide] |
| 4.3 | CC1CCCN(C2CCN(c3ncc(C(=O)NCc4ncc(F)cc4F)s3)CC2)CC1 (single isomer, unassigned) [Example 105, ent-N-[(3,5-Difluoropyridin-2-yl)methyl]-2-[4-(4-methylazepan-1-yl)piperidin-1-yl]-1,3-thiazole-5-carboxamide] |
| 260 | CCOC1CCCN(C2CCN(c3ncc(C(=O)NCc4ncc(F)cc4F)s3)CC2)C1 (single isomer, unassigned) [Example 123, ent-N-[(3,5-Difluoropyridin-2-yl)methyl]-2-(3-ethoxy[1,4′-bipiperidin]-1′-yl)-1,3-thiazole-5-carboxamide] |
| 2.9 | CCOC1CCCN(C2CCN(c3ncc(C(=O)NCc4ncc(F)cc4F)s3)CC2)C1 (single isomer, unassigned) [Example 124, ent-N-[(3,5-Difluoropyridin-2-yl)methyl]-2-(3-ethoxy[1,4′-bipiperidin]-1′-yl)-1,3-thiazole-5-carboxamide] |
| 0.61 | O=C(NCc1ncc(F)cc1F)c1cnc(N2CCC(N3CCCC(COCC4CC4)C3)CC2)s1 (single isomer, unassigned; ent-2) [Example 115, ent-2-{3-[(Cyclopropylmethoxy)methyl][1,4′-bipiperidin]-1′-yl}-N-[(3,5-difluoropyridin-2-yl)methyl]-1,3-thiazole-5-carboxamide] |
| 11 | O=C(NCc1ncc(F)cc1F)c1cnc(N2CCC(N3CCCC(COCC4CC4)C3)CC2)s1 (single isomer, unassigned; ent-2) [Example 116, ent-2-{3-[(Cyclopropylmethoxy)methyl][1,4′-bipiperidin]-1′-yl}-N-[(3,5-difluoropyridin-2-yl)methyl]-1,3-thiazole-5-carboxamide] |
